Data taken from patent US12458643B2, “Antidepressant/anxiolytic drug in which PAC1 receptor antagonist is used” (KAGOSHIMA UNIVERSITY, priority 2020, dated 2025).

What was measured:
Type in all cases: in vivo, mouse
[1] = system: single-restraint stress mice; assay: Single-restraint stress-induced anxiety-like behavior, light-dark test; settings: 30 mg/kg i.p. 30 min before 30 min restraint; 10 min test
Protocol: Male C57BL/6J mice (8 to 12 weeks old) were acclimatized to a laboratory (illuminance: 330 lx) for 60 minutes. Then, a vehicle (10% DMSO solution; dissolved in saline; n=9), PA-8 (30 mg/kg; n=9) or PA-81004 (30 mg/kg; n=10) was intraperitoneally administered thereto (0.1 mL/10 g). After a lapse of 30 minutes after administration, restraint stress (stress caused by holding the mice in tubes of 2.8 cm in diameter with a hole for breathing) was applied thereto for 30 minutes. The light-dark test (10 min) was conducted from immediately after the completion of restraint. Mice that freely behaved in a home cage for 30 minutes without being held and without accessing water and food were used as a control (n=12). The results are shown in FIG. 10 (A: time spent in the light box, B: the number of transitions between the light and dark boxes; light box illuminance: 330 lx). The data was indicated by mean±standard error. **P<0.01, *P<0.05 (One-way ANOVA followed by Tukey-Kramer test). […] Male C57BL/6J mice (8 to 12 weeks old) were acclimatized to a laboratory (illuminance: 330 lx) for 60 minutes. Then, a vehicle (10% DMSO solution; dissolved in saline; n=11), PA-9 (30 mg/kg; n=8) or PA-915 (30 mg/kg; n=9) was intraperitoneally administered thereto (0.1 mL/10 g). After a lapse of 30 minutes after administration, restraint stress (stress caused by holding the mice in tubes of 2.8 cm in diameter with a hole for breathing) was applied thereto for 30 minutes. The light-dark test (10 min) was conducted from immediately after the completion of restraint. Mice that freely behaved in a home cage for 30 minutes without being held and without accessing water and food were used as a control (n=11). The results are shown in FIG. 12 (A: time spent in the light box, B: the number of transitions between the light and dark boxes; light box illuminance: 330 lx). The data was indicated by mean±standard error. **P<0.01, *P<0.05 (One-way ANOVA followed by Tukey-Kramer test).

normal mice [2] = assay: Elevated plus maze test in normal mice; settings: normal male C57BL/6J mice, 30 mg/kg i.p., 60 min after administration, 5 min test
Protocol: The effects of PA-8 and PA-81004 on normal mice were evaluated by an elevated plus maze test (test that exploits the properties of mice to avoid heights and prefer to stay near walls; in this test, anxiety-like behavior is evaluated by placing the mice at the center of a maze disposed at a height of 50 cm in which a 26 cm long and 8 cm wide open arm without walls and a closed-arm with walls are disposed in a cross shape, and measuring a time spent in the open arm and the number of entries thereto).
Male C57BL/6J mice (8 to 12 weeks old) were acclimatized to a laboratory (illuminance: 50 lx) for 60 minutes. Then, a vehicle (10% DMSO solution; dissolved in saline; n=13), PA-8 (30 mg/kg; n=12) or PA-81004 (30 mg/kg; n=12) was intraperitoneally administered thereto (0.1 mL/10 g). After a lapse of 60 minutes after administration, the test was conducted for 5 minutes. The results are shown in FIG. 3 (A: total distance traveled, B: the number of open arm (course without walls) entries, C: time spent in the open arm).
The effects of PA-9 and PA-915 on normal mice were evaluated by the elevated plus maze test.
Male C57BL/6J mice (8 to 12 weeks old) were acclimatized to a laboratory (illuminance: 50 lx) for 60 minutes. Then, a vehicle (10% DMSO solution; dissolved in saline; n=8), PA-9 (30 mg/kg; n=8) or PA-915 (30 mg/kg; n=7) was intraperitoneally administered thereto (0.1 mL/10 g). After a lapse of 60 minutes after administration, the test was conducted for 5 minutes. The results are shown in FIG. 7 (A: total distance traveled, B: the number of open arm entries, C: time spent in the open arm).

normal mice [3] = assay: Light-dark test in normal mice; settings: normal male C57BL/6J mice, 30 mg/kg i.p., 60 min after administration, 10 min test
Protocol: The effects of PA-8 and PA-81004 on normal mice were evaluated by a light-dark test (test to measure spontaneous locomotion by exploiting the properties of mice to avoid light environments, and placing the mice in a light box and a dark box joined together (each 20 cm×20 cm, height: 30 cm); in this test, anxiety-like behavior is evaluated by measuring times spent in the light box and the dark box and the number of transitions between the light box and the dark box).
(§1) Male C57BL/6J mice (8 to 12 weeks old) were acclimatized to a laboratory for 60 minutes. Then, a vehicle (10% DMSO solution; dissolved in saline; n=13), PA-8 (30 mg/kg; n=12) or PA-81004 (30 mg/kg; n=12) was intraperitoneally administered thereto (0.1 mL/10 g). After a lapse of 60 minutes after administration, the test was conducted for 10 minutes. The results are shown in FIG. 2 (A: time spent in the light box, B: the number of transitions between the light and dark boxes; light box illuminance: 330 lx).
The effects of PA-9 and PA-915 on normal mice were evaluated by the light-dark test.
as §1, with “laboratory (illuminance: 330 lx)” for “laboratory”, “saline; n=12), PA-9” for “saline; n=13), PA-8”, “mg/kg; n=10)” for “mg/kg; n=12)”, “or PA-915” for “or PA-81004”, “FIG. 6” for “FIG. 2”

Row | SMILES | effect on single-restraint stress-induced anxiety-like behavior (light-dark test) [1] | pharmacological action in elevated plus maze test (total distance, open arm entries, time in open arm) (normal mice [2]) | pharmacological action in light-dark test (time in light box, transitions) (normal mice [3])
1 | C=CCOc1ccc(C2CC(=O)Nc3nc(N)[nH]c(=O)c32)cc1OC (stereo not drawn) [PA-8] | improving effects | no pharmacological action | no pharmacological action
2 | O=C(NCCc1c[nH]cn1)C1CC(=O)N(c2n[nH]c3ccccc23)C1 (stereo not drawn) [PA-9] | improving effects | no pharmacological action | no pharmacological action
3 | Nc1nc2c(c(=O)[nH]1)C(c1cccc(OC(F)(F)F)c1)CC(=O)N2 (stereo not drawn) [PA-81004, 2-Amino-5-(3-trifluoromethoxyphenyl)-5,8-dihydro-3H,6H-pyrido[2,3-d]pyrimidine-4,7-dione] | improving effects | no pharmacological action | no pharmacological action
